Measurements: patent US5232928A, “Tetrahydroisoquinoline amides” (Boehringer Ingelheim Pharmaceuticals, Inc., priority 1991, dated 1993)
Like-named read-outs stand apart in the source and are kept apart here. Where a SMILES comes first, the peptide text is derived from it. [ ]: non-standard residue; d: D form. The star is where a group is joined. ξ: configuration not given here. ξTic = O=C(O)C1Cc2ccccc2CN1; Cbz = O=C(OCc1ccccc1)*; ξV = CC(C)C(N)C(=O)O; CF3 = FC(F)(F)*

Experiments:
Assay type in all cases: biochemical
Human Leukocyte Elastase = target: T1, Human Leukocyte Elastase (Homo sapiens, UniProt P08246); test: Elastase inhibition in vitro, MeO-Suc-Ala-Ala-Pro-Val-pNA hydrolysis (human sputum elastase)
T1 construct: purchased Elasten Products Co., Pacific, Mo; host or cells: human sputum
T1 sequence (P08246 30-247 limits assumed): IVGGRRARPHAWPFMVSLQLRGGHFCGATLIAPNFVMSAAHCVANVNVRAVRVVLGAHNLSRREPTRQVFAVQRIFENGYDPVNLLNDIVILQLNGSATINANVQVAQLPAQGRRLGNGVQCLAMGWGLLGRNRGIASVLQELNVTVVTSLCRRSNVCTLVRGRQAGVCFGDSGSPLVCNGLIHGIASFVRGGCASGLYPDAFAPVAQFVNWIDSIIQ
Text: The method of K. Nakajima et al., Journal of Biological Chemistry, 254: 4027-4032 was adapted to a microtiter format. The in vitro assay is based upon the hydrolysis of the commercially available (Sigma Chemical Company, St. Louis, Mo.) substrate methoxy O-succinyl-L-alanyl-L-alanyl-L-prolyl-L-valine para - nitroanilide (MeO-Suc-Ala-Ala-Pro-Val-pNA) and the release of para-nitroanilide (pNA), which absorbs at 405 nm.
b. Vmax Kinetic Microtiter Plate Reader, equipped with 405 nm filter (Molecular Devices)
a. Human sputum elastase (HSE) (Elasten Products Co., Pacific, Mo.) dissolved 1 mg/mL in 0.05M sodium chloride and frozen (50 μL aliquots) at -20° C. until used.
b. Stock solution of MeO-Suc-Ala-Ala-Pro-Val-pNA dissolved at 15 mM in dimethylsulfoxide (DMSO) and frozen (4 mL aliquots) at -20° C. until used.
c. Assay buffer: 0.1M tris buffer, pH 7.5 containing 0.5M sodium choloride.
Screening is performed in microtiter plates, using 0.5 mM substrate and monitored on a Microtiter Reader. Enzyme activity (+/- test compound) is determined as the rate of pNA release (linear regression analysis of slope). Inhibitory activity of the test compound is calculated relative to the uninhibited enzyme control, as follows: [formula]
A frozen aliquot of HSE is thawed and diluted with assay buffer to a stock concentration of 0.02 mg/mL (30×assay concentration). […]

Plasmin = Plasmin (Homo sapiens, UniProt P00747); test: Selectivity assay: plasmin; conditions: selectivity table
Urokinase = Urokinase (Homo sapiens, UniProt P00749); test: Selectivity assay: urokinase; conditions: selectivity table
Thrombin = Thrombin (Homo sapiens, UniProt P00734); test: Selectivity assay: thrombin; conditions: selectivity table
Cathepsin B = Cathepsin B (Homo sapiens, UniProt P07858); test: Selectivity assay: cathepsin B; conditions: selectivity table
Chymotrypsin = Chymotrypsin (Bos taurus, UniProt P00766); test: Selectivity assay: chymotrypsin; conditions: selectivity table
Human C1 Esterase = target: T2, Human C1 Esterase (Homo sapiens, UniProt P09871); test: Selectivity assay: human C1 esterase; conditions: selectivity table
T2 sequence (P09871 438-688 limits assumed): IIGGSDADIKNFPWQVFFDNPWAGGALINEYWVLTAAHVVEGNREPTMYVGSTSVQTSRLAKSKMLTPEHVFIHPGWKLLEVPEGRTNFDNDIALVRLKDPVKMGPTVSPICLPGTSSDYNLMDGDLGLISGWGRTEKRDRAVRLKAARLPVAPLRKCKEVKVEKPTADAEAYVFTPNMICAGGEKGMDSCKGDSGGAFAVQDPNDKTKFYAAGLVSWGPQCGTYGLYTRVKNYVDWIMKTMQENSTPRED
T2 sequence (P09871 16-437 partner limits assumed): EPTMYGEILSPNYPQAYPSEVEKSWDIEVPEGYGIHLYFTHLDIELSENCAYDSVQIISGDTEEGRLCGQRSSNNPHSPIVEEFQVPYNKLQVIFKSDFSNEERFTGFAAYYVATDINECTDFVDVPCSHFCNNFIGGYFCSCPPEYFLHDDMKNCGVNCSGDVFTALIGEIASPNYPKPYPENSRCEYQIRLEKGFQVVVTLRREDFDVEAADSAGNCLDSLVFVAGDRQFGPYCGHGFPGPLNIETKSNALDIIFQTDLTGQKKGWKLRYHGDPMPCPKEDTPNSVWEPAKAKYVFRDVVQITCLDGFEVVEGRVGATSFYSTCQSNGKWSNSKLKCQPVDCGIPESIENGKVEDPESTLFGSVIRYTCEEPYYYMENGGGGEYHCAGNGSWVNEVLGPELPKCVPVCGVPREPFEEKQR

Recombitant HIV Protease = target: T3, Recombitant HIV Protease (Human immunodeficiency virus type 1 group M subtype B, UniProt P04585); test: Selectivity assay: recombinant HIV protease; conditions: selectivity table
T3 construct: Recombitant HIV Protease

[1] = target: Recombitant 3C - Proteinase; test: Selectivity assay: recombinant 3C-proteinase; conditions: selectivity table

Plasmin, sequence (P00747 581-810 limits assumed, species assumed): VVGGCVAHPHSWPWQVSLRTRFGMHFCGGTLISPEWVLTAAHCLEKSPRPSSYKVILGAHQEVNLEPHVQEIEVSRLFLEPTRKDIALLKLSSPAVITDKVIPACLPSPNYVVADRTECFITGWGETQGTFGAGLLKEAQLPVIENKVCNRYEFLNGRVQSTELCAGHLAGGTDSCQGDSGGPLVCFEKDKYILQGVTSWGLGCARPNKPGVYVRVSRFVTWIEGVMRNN
Plasmin, sequence (P00747 97-580 partner limits assumed, species assumed): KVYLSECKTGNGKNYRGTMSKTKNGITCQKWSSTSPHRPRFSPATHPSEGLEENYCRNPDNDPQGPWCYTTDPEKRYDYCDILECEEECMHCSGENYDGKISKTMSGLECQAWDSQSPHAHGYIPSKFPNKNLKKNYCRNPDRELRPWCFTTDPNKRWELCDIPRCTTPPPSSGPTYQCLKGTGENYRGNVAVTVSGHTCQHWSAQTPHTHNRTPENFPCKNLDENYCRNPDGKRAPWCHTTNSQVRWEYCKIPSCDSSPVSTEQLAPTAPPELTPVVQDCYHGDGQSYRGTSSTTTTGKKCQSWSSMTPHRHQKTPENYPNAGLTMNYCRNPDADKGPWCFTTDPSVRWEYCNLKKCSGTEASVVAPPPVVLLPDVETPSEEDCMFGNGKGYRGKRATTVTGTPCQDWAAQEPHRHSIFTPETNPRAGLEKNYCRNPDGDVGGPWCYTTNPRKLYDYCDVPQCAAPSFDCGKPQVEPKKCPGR

Compound | IC50 (Human Leukocyte Elastase; Table I, in vitro inhibition, 0.5 mM substrate, pH 7.5, read-out: In Vitro IC50) [µM] | IC50 (Human Leukocyte Elastase; selectivity table, Human Leukocyte Elastase) [µg/mL] | IC50 (Plasmin) [µM] | IC50 (Urokinase) [µM] | IC50 (Thrombin) [µM] | IC50 (Cathepsin B) [µM] | IC50 (Chymotrypsin) [µM] | IC50 (Human C1 Esterase) [µM] | IC50 (Recombitant HIV Protease) [µM] | IC50 [1] [µg/mL]
CC(C)C(NC(=O)C1Cc2ccccc2CN1C(=O)[C@@H](NC(=O)OCc1ccccc1)C(C)C)C(=O)C(F)(F)F (stereo partly drawn) [CBZ] (Cbz-Val-[ξTic]-[ξV]-CF3) | < 17.8 | – | – | – | – | – | – | – | – | –
CC(C)C(NC(=O)C1Cc2ccccc2CN1C(=O)[C@@H](NC(=O)c1ccc(C(=O)NS(=O)(=O)c2ccc(Cl)cc2)cc1)C(C)C)C(=O)C(F)(F)F (stereo partly drawn) [p-[p-Cl(C6 H4)SO2 NHCO](C6 H4)CO, [[4-(4-Chlorophenyl)sulfonylaminocarbonyl]phenyl-1-oxomethyl]-L-valyl-N-[3-(1,1,1-trifluoro-4-methyl-2-oxopentyl)]-1,2,3,4-tetrahydro-3-isoquinoline-carboxamide] | – | 0.082 | > 8.01 | > 8.01 | > 8.01 | > 8.01 | > 8.01 | > 8.01 | > 66.7 | > 50
